Assay: Change of crystal form by heating, friction or suspension in a solvent
Type: physicochemical
Text: In the present invention, for the discrimination of the crystal form, a powder X-ray diffraction measurement, a differential thermal analysis, ^13C CP/TOSS NMR, a Raman spectroscopy, and the like are effective, however, the method for the discrimination is not limited to these measurement methods.
• Apparatus: MXLabo (manufactured by Mac Science Corporation (present: Bruker AXS, Inc.)) • Ray source: Cu • Wavelength: 1.54056A • Goniometer: vertical-type goniometer • Tube voltage: 40.0 kV • Tube current: 30 mA • Measuring method: continuous method • Data range: 3.0400 to 40.0000 deg • Scanning axis: 2θ/θ • Sampling interval: 0.0400 deg • Scanning rate: 3.600 deg/min. • Emission slit: 1.00 deg • Scattering slit: 1.00 deg • Receiving slit: 0.15 mm • RSM: 0.80 mm
• Apparatus: TG 8120 (manufactured by Rigaku Corporation) • Temperature elevation: 20° C. to 300° C. at an elevation rate of 5° C./min • Atmosphere: Air • Reference: Al2O3 • Vessel: Al vessel • Sampling: 1 sec

| Structure (SMILES) | change of crystal form by heating or friction | change of crystal form by heating | change of crystal form on suspending in a solvent and stirring (suspended in a solvent, stirred) |
| --- | --- | --- | --- |
| COc1cc(OC)nc(NC(=O)NS(=O)(=O)c2c(C3=NOCC(C)O3)c(Cl)nn2C)n1 (stereo not shown) [crystal form A, 3-chloro-N-(4,6-dimethoxypyrimidine-2-ylcarbamoyl)-1-methyl-4-(5-methyl-5,6-dihydro-1,4,2-dioxazine-3-yl)-1H-pyrazole-5-sulfonamide] | not observed | – | – |
| COc1cc(OC)nc(NC(=O)NS(=O)(=O)c2c(C3=NOCC(C)O3)c(Cl)nn2C)n1 (stereo not shown) [crystal form B, 3-chloro-N-(4,6-dimethoxypyrimidine-2-ylcarbamoyl)-1-methyl-4-(5-methyl-5,6-dihydro-1,4,2-dioxazine-3-yl)-1H-pyrazole-5-sulfonamide] | – | not observed | transits to be converted into the crystal form A |
| COc1cc(OC)nc(NC(=O)NS(=O)(=O)c2c(C3=NOCC(C)O3)c(Cl)nn2C)n1 (stereo not shown) [crystal form C, 3-chloro-N-(4,6-dimethoxypyrimidine-2-ylcarbamoyl)-1-methyl-4-(5-methyl-5,6-dihydro-1,4,2-dioxazine-3-yl)-1H-pyrazole-5-sulfonamide] | transits to the crystal form A or B | – | – |

The next lines start with results.

| change of crystal form by heating or friction | change of crystal form by heating | Structure (SMILES) | change of crystal form on suspending in a solvent and stirring (suspended in a solvent, stirred) |
| --- | --- | --- | --- |
| – | transits to the crystal form A | COc1cc(OC)nc(NC(=O)NS(=O)(=O)c2c(C3=NOCC(C)O3)c(Cl)nn2C)n1 (stereo not shown) [crystal form D, 3-chloro-N-(4,6-dimethoxypyrimidine-2-ylcarbamoyl)-1-methyl-4-(5-methyl-5,6-dihydro-1,4,2-dioxazine-3-yl)-1H-pyrazole-5-sulfonamide] | – |
| transits to the crystal form A | – | COc1cc(OC)nc(NC(=O)NS(=O)(=O)c2c(C3=NOCC(C)O3)c(Cl)nn2C)n1 (stereo not shown) [crystal form E, 3-chloro-N-(4,6-dimethoxypyrimidine-2-ylearbamoyl)-1-methyl-4-(5-methyl-5,6-dihydro-1,4,2-dioxazine-3-yl)-1H-pyrazole-5-sulfonamide] | – |
| transits to the crystal form A | – | COc1cc(OC)nc(NC(=O)NS(=O)(=O)c2c(C3=NOCC(C)O3)c(Cl)nn2C)n1 (stereo not shown) [crystal form F, 3-chloro-N-(4,6-dimethoxypyrimidine-2-ylcarbamoyl)-1-methyl-4-(5-methyl-5,6-dihydro-1,4,2-dioxazine-3-yl)-1H-pyrazole-5-sulfonamide] | – |
